Reference: PubChem BioAssay AID624285 (Broad Institute, 2012)
“And” between values parts separate entries of the source, which are not always exact repeats. Identical values can stand only once. The source made the active and inactive calls.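 The calls were made as follows: active = signal-decreasing dose-response curve whose fitted half-maximal concentration is at or below twice the highest valid tested dose; inconclusive = flat fit at 30 to 70% signal loss, or poor fit; inactive = the rest.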

Experiment: cytotoxicity in mammalian cells, dose response, cytotoxicity control for PDI inhibitor project, cell-based, 24 h, luminescence, cherry-picked samples (AID 624285)
Details: NIH3T3/HeLa viability, CellTiter-Glo ATP luminescence, 24 h; at 35 µM (top of the series)

SMILES	activity change, negative = cytotoxicity
O=C(N/N=C/c1ccc(O)cc1)NC12CC3CC(CC(C3)C1)C2	-14.1% (inactive)
C[C@@H]1CN([C@H](C)CO)C(=O)Cc2cc(NC(=O)Nc3ccccc3)ccc2O[C@H]1CN(C)Cc1ccccc1	1.49% (inactive)
CCCCNC(=O)Nc1ccon1	-6.29% (inactive)
C[C@@H]1CN([C@@H](C)CO)C(=O)c2cccc(NS(C)(=O)=O)c2O[C@H]1CN(C)Cc1ccc(Oc2ccccc2)cc1	-11.5% (inactive) and -6.47% (inactive)
CC(C)c1ccc(Nc2nc(CC(=O)O)cs2)cc1	-4.01% (inactive)
Cn1c(=O)n(CCCOc2ccc(Br)cc2)c2ccccc21	-15.3% (inactive)
Cc1cc(NC(=O)CSc2[nH]c(=O)cc(C(F)(F)F)c2C#N)no1	-3.53% (inactive)
CC(NCC(O)COCc1ccc(Cl)cc1)c1ccccc1 (configuration not stated)	-15.3% (inactive)
CN(C)c1ccc(C2(O)C(=O)c3ccccc3C2=O)cc1	-6.27% (inactive)
CN1C(=O)NC(c2ccccc2)C2=C1CN(c1cccc(C(F)(F)F)c1)C2=O (configuration not stated)	-4.45% (inactive)
CC(Cc1ccccc1Sc1ccccc1O)N(C)C (configuration not stated)	-11.9% (inactive)
CC(=O)C1=C(O)C(=O)N(CCc2c[nH]c3ccccc23)C1c1ccc(O)cc1 (configuration not stated)	-8.38% (inactive)
CC(C)N(C)C(=O)CCc1nnc(CCc2c[nH]c3ccccc23)o1	-10.2% (inactive)
O=C1NC(Cc2ccc(O)cc2)c2nc3cc(Cl)ccc3c(=O)n2-c2ncccc21 (configuration not stated)	-16.3% (inactive)
CCOC(=O)c1c(CN2CCN(Cc3ccccc3)CC2)n(C)c2cc(Br)c(OC)cc12	-17.4% (inactive)
COc1ccc(N(Cc2cc3cc(OC)ccc3[nH]c2=O)C(=O)C2CCCO2)cc1 (configuration not stated)	-10.5% (inactive)
COc1cc2c(cc1OC)C1C(C(=O)Nc3ccccc3N3CCN(C)CC3)c3ccccc3C(=O)N1CC2 (configuration not stated)	-11.8% (inactive)
CC[C@]12c3[nH]c4cc(-c5ccco5)ccc4c3CCN1C(=O)[C@@H](CC(=O)NCCCOC)C[C@@H]2C(=O)N1CCN(C(=O)c2ccco2)CC1	-9.72% (inactive)
O=C1NC(Cc2ccc(O)cc2)c2nc3ccccc3c(=O)n2-c2ncccc21 (configuration not stated)	-7.17% (inactive)
COc1ccc(/C(C)=N/NC(=O)CNC(=O)c2cccs2)cc1	-6.13% (inactive)
C[C@H]1CN([C@@H](C)CO)C(=O)c2cccc(NS(C)(=O)=O)c2O[C@H]1CN(C)Cc1ccc(Oc2ccccc2)cc1	-4.63% (inactive)
O=C(CN1C(=O)NC2(CCCC2)C1=O)Nc1ccc(C(F)(F)F)cc1	-9.2% (inactive)
COc1cccc(-n2ccnc2SCC(=O)Nc2cc(OC)ccc2OC)c1	-15.9% (inactive)
Cc1c(C(=O)N2CCOCC2)sc2ncn(CC(=O)N3CCC(C)CC3)c(=O)c12	-2.62% (inactive)
CCCNC(=O)c1cccc(COc2ccccc2OC)c1	-6.42% (inactive)
COC(=O)c1ccc(COC(=O)CSCC(=O)Nc2ccc(C)cc2C)cc1	-2.15% (inactive)

SMILES	activity change, negative = cytotoxicity
CCN(CC(=O)Nc1ccc2c(c1)OCCO2)C(=O)CC1CCCC1	-11.8% (inactive)
O=C(NC1CCCCC1)C1CCN(S(=O)(=O)c2cccs2)CC1	-7.67% (inactive)
C[C@@H]1CN([C@H](C)CO)C(=O)c2cc(NC(=O)Cc3cn(C)c4ccccc34)ccc2O[C@@H]1CN(C)S(=O)(=O)c1ccc(F)cc1	-8.29% (inactive)
C[C@@H]1O[C@@H](Oc2c(-c3ccc(O)c(O)c3)oc3cc(O)cc(O)c3c2=O)[C@H](O)[C@H](O)[C@H]1O	-1.28% (inactive) and -10.2% (inactive)
Cc1cc(=O)c(C(=O)Nc2cccc(C(=O)NC3CC3)c2)nn1-c1ccccc1	-3.19% (inactive)
CC(=O)C1=C(O)C(=O)N(CCc2c[nH]c3ccccc23)C1c1cccc(O)c1 (configuration not stated)	-10.4% (inactive)
CCCCn1c(SCC(=O)NC2CCS(=O)(=O)C2)nc2ccccc2c1=O (configuration not stated)	-8.17% (inactive)
O=C(O)c1ccccc1Cc1ccc(F)c2ccccc12	-10.5% (inactive)
CCOC(=O)c1ccc2c(c1)nc(SCC(=O)N1CCCCC1)n2CC	-10.4% (inactive)
CCOC(=O)c1cc(S(=O)(=O)N2CCN(C(=O)OCC)CC2)cn1C	-3.84% (inactive)
CCOc1ccc2nc(NS(=O)(=O)Cc3ccccc3)sc2c1	-6.13% (inactive)
Cc1cccc(C)c1NC(=O)CN1CCNCC1	-9.95% (inactive)
CC(OC(=O)c1cccc(S(=O)(=O)N(C)C)c1)C(=O)NCC(=O)Nc1ccc(F)c(F)c1F (configuration not stated)	-4.24% (inactive)
CC1(C(=O)Nc2cccc3c2CCCC3)CCN1C(=O)c1cccc(F)c1 (configuration not stated)	-14.8% (inactive)
CC(=O)OC[C@H]1O[C@@H](Oc2cc(O)cc3oc(-c4ccc(O)cc4)cc(=O)c23)[C@H](O[C@@H]2O[C@@H](C)[C@H](O)[C@@H](O)[C@H]2O)[C@@H](O)[C@@H]1O	-6.13% (inactive)
COc1cc(-c2oc3cc(O)cc(O)c3c(=O)c2O[C@@H]2O[C@H](COC3O[C@@H](C)[C@H](O)[C@@H](O)[C@H]3O)[C@@H](O)[C@H](O)[C@H]2O)ccc1O (some centres not stated)	-2.55% (inactive)
CC1(C(=O)N2CCCCC2)CCN1C(=O)Cc1ccc(-c2ccccc2)cc1 (configuration not stated)	-5.8% (inactive)
O=S(=O)(c1cc(F)ccc1F)N1CCN(c2ncccn2)CC1	-15.2% (inactive)
O=C(NCc1ccccc1)c1cc(C2CCCN(C(=O)C3CCCCC3)C2)on1 (configuration not stated)	-16.2% (inactive)
COC(=O)c1cccc(CSc2nnc(C)s2)c1	-12.9% (inactive)
Cc1ccc2nsnc2c1NC(=O)c1cccnc1Cl	-3.17% (inactive)
CC1CCCN(c2cc3c(cc2[N+](=O)[O-])C(=O)N(c2ccccc2)C3=O)C1 (configuration not stated)	0.75% (inactive)
CC(C)Cn1c(N)c(C(=O)COC(=O)c2ccc(O)cc2)c(=O)n(C)c1=O	-14.4% (inactive)
O=C1CC(C(=O)N2CCc3ccccc32)CN1c1ccc(F)cc1 (configuration not stated)	-10.7% (inactive)
C[C@H](CO)N1C[C@H](C)[C@@H](CN(C)S(=O)(=O)c2ccccc2)Oc2ccc(NC(=O)Cc3cn(C)c4ccccc34)cc2C1=O	-1.88% (inactive)
O=C(O)CCCCCn1c(SCC(=O)c2ccc(O)c(O)c2)nc2ccsc2c1=O	-10.6% (inactive)

SMILES	activity change, negative = cytotoxicity
COc1cc(C2C(C(C)=O)=C(O)C(=O)N2CCc2c[nH]c3ccccc23)ccc1O (configuration not stated)	-5.75% (inactive)
CCN1C(=O)C2C(c3ccccc3F)NC(Cc3ccc(O)cc3)(C(=O)OC)C2C1=O (configuration not stated)	-13.9% (inactive)
CCOC(=O)C(C)c1n[nH]c(=O)c2ccccc12 (configuration not stated)	-6.39% (inactive)
Cc1ccc(NC(=O)NC(=O)CN2CCC(C(N)=O)CC2)c(C)c1	-4.84% (inactive)
C[C@H](CO)N1C[C@H](C)[C@H](CN(C)Cc2ccc(Oc3ccccc3)cc2)Oc2c(NS(C)(=O)=O)cccc2C1=O	-6.82% (inactive)
Cc1ccc(N2CC(C(=O)Nc3nc4ccc(S(C)(=O)=O)cc4s3)CC2=O)cc1 (configuration not stated)	-4.02% (inactive)
Cc1noc(C)c1S(=O)(=O)Nc1ccc2c(c1)CC(=O)N([C@H](C)CO)C[C@H](C)[C@H](CN(C)S(=O)(=O)c1ccccc1)O2	3.77% (inactive)
CCOc1ncccc1C(=O)OCC(=O)Nc1ccc(C(C)C)cc1	-7.86% (inactive)
CCOC(=O)C1(CC2CC2)CCN(Cc2cc(Cl)c(O)c(OC)c2)CC1	-20.4% (inactive)
CN(C)C(=O)CSc1n[nH]c(-c2ccco2)n1	-5.07% (inactive)
Cc1cccc(NC(=S)NCC23C=CC(O2)C2C(=O)N(c4ccc(Cl)cc4)C(=O)C23)c1 (configuration not stated)	-20.9% (inactive)
O=C1NC[C@H](Cc2ccc(O)cc2)N(CC2CCCCC2)C1=O	-25.4% (inactive)
CCCCN(C(=O)C1=CC=CN2CCS(=O)(=O)N=C12)c1ccccc1	-2.89% (inactive)
Cc1ccc(CN(c2ccc(C(=O)Nc3ccc4c(c3)OCO4)cc2)S(C)(=O)=O)cc1	-9.66% (inactive)
CN(C)S(=O)(=O)c1ccc(Cl)c(NC(=O)CSc2nnnn2-c2ccc(O)cc2)c1	-11.7% (inactive)
O=C(c1ccc(NS(=O)(=O)c2ccccc2)cc1)N1CCOCC1	-8.07% (inactive)
Cc1c(O)ccc2c(CN3CCN(CCO)CC3)cc(=O)oc12	-7.06% (inactive)
COc1cc(CCC(=O)OCC(=O)Nc2cc(S(=O)(=O)N3CCOCC3)ccc2Cl)cc(OC)c1OC	-2.35% (inactive)
COc1ccc(N2CCN(CC(=O)c3ccc(O)c(C)c3O)CC2)cc1	-3.44% (inactive)
Cc1noc(C)c1S(=O)(=O)Nc1ccc2c(c1)CC(=O)N([C@H](C)CO)C[C@H](C)[C@H](CN(C)S(=O)(=O)c1ccc(F)cc1)O2	0.678% (inactive) and -3.98% (inactive)
CCc1nc2ccc(C(=O)N(CC)CC(=O)Nc3c(F)cccc3F)cc2nc1CC	-5.83% (inactive)
Cc1ccc(N2CC(C(=O)N3CCCCCC3)CC2=O)cc1 (configuration not stated)	-7.03% (inactive)
C[C@@H]1CN([C@H](C)CO)C(=O)Cc2cc(NC(=O)Nc3ccccc3)ccc2O[C@@H]1CN(C)Cc1ccccc1	-3.74% (inactive)
C=CCNc1ncnc2c1ncn2[C@H]1CN(Cc2cccc3ccccc23)C[C@@H](CO)O1	-8.26% (inactive)
O=C(/C=C/c1ccccc1)Nc1scc(-c2ccccc2)c1C(=O)O	-11.6% (inactive)
